Measured values from US7064133B2, “Quinoline derivatives process of synthesis and medicaments containing these derivatives” (Bioalliance Pharma, priority 2001, dated 2006).

Experiments:
Type in all cases: cell-based
HeLa = assay: Cytotoxicity, MTT to formazan test, adherent cells; conditions: at 500 μM
Description: (§1) The toxicity of the compounds is evaluated by a test of biotransformation of MTT to formazan by cellular mitochondrial dehydrogenases.

CEM = assay: Cytotoxicity, MTT to formazan test, cells in suspension; conditions: at 500 μM
Description: as §1

[1] = tested on: integration of viral DNA into the host genome; assay: Inhibition of the integration of viral DNA into the host genome (PCR, densitometry) in infected CEM cells; conditions: 24 hours
Description: This test consists in bringing CEM cells into contact with the supernatant of infected cells containing the infectious virions. After 2 hours, the cells are washed and placed again in RPMI medium containing the compound according to the invention for 24 hours (BioA53). The DNA of the cells is then extracted using a genomic DNA preparation kit (QiaBlood, Qiagen™). This DNA is the target for PCR amplifications aimed at evaluating, on the one hand, the quantity of total viral DNA present in the solution, and, on the other hand, the quantity of viral DNA integrated into the cellular genome. The latter amplification takes place in two stages: the first step uses a PCR primer homologous to a sequence of the retroviral DNA; the second primer is homologous to the repetitive genomic Alu sequences. The second stage is a nested PCR which makes it possible to visualize the retroviral DNA.
The quantity of DNA is evaluated by densitometry after separation of the amplification products on agarose gel.

SMILES | cytotoxicity (MTT) (HeLa) | cytotoxicity (MTT) (CEM) | decrease in the quantity of DNA integrated ([1]; 50 μM, CEM cells) | inhibition of DNA integrated ([1]; 100 μM, CEM cells) | quantity of total viral DNA ([1]; treatment of CEM cells with the compound)
O=C(NCc1ccc(O)c(O)c1)c1ccc2ccc(C(=O)[O-])c(O)c2n1.[Na+] [BioA53, sodium 2-(3,4-dihydroxybenzylcarbamoyl)-8-hydroxyquinoline-7-carboxylate] | lacks cytotoxicity | lacks cytotoxicity | at least 80% | inhibition of the entire DNA integrated | not affected
O=C(NCc1ccc(O)cc1O)c1ccc2ccc(C(=O)[O-])c(O)c2n1.[Na+] [BioA163, sodium 2-(2,4-dihydroxybenzylcarbamoyl)-8-hydroxyquinoline-7-carboxylate] | lacks cytotoxicity | lacks cytotoxicity | – | – | –
